In patent US20110009453A1, “S1P3 RECEPTOR INHIBITORS FOR TREATING INFLAMMATION” (priority 2008, published 2011):
Where two headings read alike, the source gives them in different places.

Tests used:
human S1P3 receptor = target: T1, human S1P3 receptor (Homo sapiens, UniProt Q99500); assay: FLIPR assay in T24 cells stably expressing the human S1P3 receptor; type: cell-based; details: for inhibition at 10 µM: T-24, read-out: S1P3 percent inhibition (in parenthesis)
T1 construct: expressed in transfected cells
T1 sequence (Q99500 whole entry): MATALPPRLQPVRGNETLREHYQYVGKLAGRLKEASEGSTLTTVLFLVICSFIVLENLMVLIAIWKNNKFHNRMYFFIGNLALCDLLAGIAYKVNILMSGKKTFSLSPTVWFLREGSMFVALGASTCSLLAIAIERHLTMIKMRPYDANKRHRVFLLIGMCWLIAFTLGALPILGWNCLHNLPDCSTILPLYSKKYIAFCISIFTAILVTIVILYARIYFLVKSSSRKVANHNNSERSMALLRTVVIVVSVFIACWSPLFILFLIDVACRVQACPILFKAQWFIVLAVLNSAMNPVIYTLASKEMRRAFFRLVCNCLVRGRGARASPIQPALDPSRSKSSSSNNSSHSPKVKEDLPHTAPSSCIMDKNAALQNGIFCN
Procedure: Another method of determining if a compound is an S1P3 receptor inhibitor is with a FLIPR assay. An example of this method is described in U.S. patent application Ser. No. 11/675,168, the contents of which are incorporated herein by reference. According to that application, compounds may be assessed for their ability to activate or block activation of the human S1P3 receptor in T24 cells stably expressing the human S1P3 receptor. In this assay ten thousand cells/well are plated into 384-well poly-D-lysine coated plates one day prior to use. The growth media for the S1P3 receptor expressing cell line is McCoy's 5A medium supplemented with 10% charcoal-treated fetal bovine serum (FBS), 1% antibiotic-antimycotic and 400 μg/ml geneticin. On the day of the experiment, the cells are washed twice with Hank's Balanced Salt Solution supplemented with 20 mM HEPES (HBSS/Hepes buffer). The cells are then dye loaded with 2 uM Fluo-4 diluted in the HBSS/Hepes buffer with 1.25 mM Probenecid and incubated at 37° C. for 40 minutes. Extracellular dye is removed by washing the cell plates four times prior to placing the plates in the FLIPR (Fluorometric Imaging Plate Reader, Molecular Devices). Ligands are diluted in HBSS/Hepes buffer and prepared in 384-well microplates. The positive control, S1P, is diluted in HBSS/Hepes buffer with 4 mg/ml fatty acid free bovine serum albumin. The FLIPR transfers 12.5 μl from the ligand microplate to the cell plate and takes fluorescent measurements for 75 seconds, taking readings every second, and then for 2.5 minutes, taking readings every 10 seconds. Drugs are tested over the concentration range of to 0.61 nM to 10,000 nM. Data for Ca^+2 responses is obtained in arbitrary fluorescence units and not translated into Ca^+2 concentrations. IC50 values are determined through a […] analysis using the Levenburg Marquardt algorithm.
Examples of such compounds include the following. […] The EC50 and IC50 values expressed in the following table were obtained in the FLIPR assay described above. EC50 or IC50 values are stated first, followed by percent efficacy or percent inhibition stated in parenthesis. In this table and the next, percent efficacy is defined as percent of receptor activity induced by a test compound at the highest dose tested (10 μM) relative to the receptor activity induced by 5 nM sphingosine-1-phosphate, and percent inhibition is defined as percent of receptor activity induced by 5 nM sphingosine-1-phosphate that is inhibited by a test compound at the highest dose tested (10 μM). “NA” means that no activity was detected at highest dose tested; “ND” means not determined.
The IC50 values expressed below were obtained in the FLIPR assay described above. IC50 values are stated first (except as otherwise noted), followed by percent efficacy or percent inhibition in parenthesis.

S1P1 receptor = S1P1 receptor (Homo sapiens, UniProt P21453); assay: FLIPR assay (Ca2+ response), S1P1 receptor; type: cell-based
Sequence of S1P1 receptor (P21453 whole entry): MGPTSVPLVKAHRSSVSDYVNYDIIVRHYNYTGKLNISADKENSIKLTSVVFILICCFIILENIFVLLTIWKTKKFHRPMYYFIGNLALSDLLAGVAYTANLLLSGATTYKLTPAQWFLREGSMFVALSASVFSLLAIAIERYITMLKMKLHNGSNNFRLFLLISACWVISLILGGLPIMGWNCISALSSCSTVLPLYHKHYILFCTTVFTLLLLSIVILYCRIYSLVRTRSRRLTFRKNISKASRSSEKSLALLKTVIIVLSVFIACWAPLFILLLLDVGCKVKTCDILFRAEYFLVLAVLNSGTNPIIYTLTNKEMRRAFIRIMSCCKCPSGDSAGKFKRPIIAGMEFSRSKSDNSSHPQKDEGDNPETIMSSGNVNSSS

[1] = FLIPR, table of additional selective S1P3 inhibitors, read-out: S1P3 (IC50)
[2] = percent of activity induced by 5 nM sphingosine-1-phosphate inhibited at 10 μM, table of additional selective S1P3 inhibitors
[3] = FLIPR, values given in μM, read-out: S1P3 (IC50)
[4] = percent of activity induced by 5 nM sphingosine-1-phosphate inhibited at highest dose tested (10 μM)
[5] = tested 0.61 nM to 10,000 nM, NA = no activity detected at highest dose tested, read-out: S1P1 (EC50)
[6] = FLIPR, values in nM, read-out: S1P3 (IC50)

Compound | inhibition at 10 µM (human S1P3 receptor; [2]) [%] | IC50 (human S1P3 receptor; [3]) [µM] | inhibition at 10 µM (human S1P3 receptor; [4]) [%] | further results
O=C(NCc1ccc(F)c(F)c1)c1c(C2CCCC2)n(Cc2ccccc2)c2ccc(O)cc12 | 100 | – | – | IC50 (human S1P3 receptor; [1]): 0.031 µM
CCc1ccc(-c2ccc(COCCCP(=O)(O)O)nc2-c2ccccc2)cc1 [Compound 155] | – | 4 | 27 | –
Cc1ccc(-c2ccc(CNCCCP(=O)(O)O)nc2-c2ccccc2)cc1 [Compound 147] | – | – | 98 | EC50 (S1P1 receptor; [5]): 121 nM; IC50 (human S1P3 receptor; [6]): 0.231 µM
O=P(O)(O)CCCNCc1ccc(-c2ccccc2)c(-c2ccccc2)n1 [Compound 146] | – | 1.6 | 83 | –
CC(C)c1c(C(=O)NCc2ccc(F)c(F)c2)c2cc(O)ccc2n1Cc1ccccc1 | 98 | – | – | IC50 (human S1P3 receptor): 0.035 µM
CCOc1ccc2c(C(=O)NCc3ccc(F)c(F)c3)c(C(C)C)n(Cc3ccccc3)c2c1 | 100 | – | – | IC50 (human S1P3 receptor): 0.019 µM
Cc1ccc(-c2ccc(COCCCP(=O)(O)O)nc2-c2ccccc2)cc1 [Compound 156] | – | 1.9 | 11 | –
CCCOc1ccc2c(C(=O)NCc3ccc(F)c(F)c3)c(C(C)C)n(Cc3ccccc3)c2c1 | 100 | – | – | IC50 (human S1P3 receptor): 0.005 µM
CC(C)c1c(C(=O)NCc2ccc(F)c(F)c2)c2ccccc2n1Cc1ccccc1 | 100 | – | – | IC50 (human S1P3 receptor): 0.209 µM
O=C(NCc1ccc(F)c(F)c1)c1c(C2CCCC2)n(Cc2ccccn2)c2ccc(O)cc12 | 99 | – | – | IC50 (human S1P3 receptor; [1]): 0.017 µM
CCc1ccc(-c2ccc(CNCCCP(=O)(O)O)nc2-c2ccncc2)cc1 [Compound 151] | – | 1.1 | 95 | –
CCc1ccc(-c2ccc(CNCCCP(=O)(O)O)nc2-c2ccccc2)cc1 [Compound 148] | – | – | 98 | EC50 (S1P1 receptor; [5]): 170 nM; IC50 (human S1P3 receptor; [6]): 0.319 µM
CC(C)Oc1ccc2c(C(=O)NCc3ccc(F)c(F)c3)c(C(C)C)n(Cc3ccccc3)c2c1 | 100 | – | – | IC50 (human S1P3 receptor): 0.006 µM
CCc1ccc(-c2ccc(CNCCP(=O)(O)O)nc2-c2ccccc2)cc1 [Compound 149] | – | 1.8 | 99 | –
CCc1ccc(-c2ccc(CNCCP(=O)(O)O)nc2-c2ccncc2)cc1 [Compound 152] | – | 1.8 | 68 | –
O=P(O)(O)CCCNCc1ccc(-c2ccc(C(F)(F)F)cc2)c(-c2ccccc2)n1 [Compound 150] | – | – | 95 | –
CCCc1ccc(-c2ccc(CNCCCP(=O)(O)O)nc2-c2ccccc2)cc1 [Compound 154] | – | – | 98 | EC50 (S1P1 receptor; [5]): 114 nM; IC50 (human S1P3 receptor; [6]): 0.319 µM
CCc1ccc(-c2ccc(CNCCCCP(=O)(O)O)nc2-c2ccccc2)cc1 [Compound 153] | – | – | 30 | –
CCc1ccc(-c2ccc(CNCCCP(=O)(O)O)nc2-c2ccccc2)cc1 [drawing 165] | – | – | – | EC50 (S1P1 receptor; table of additional selective S1P3 inhibitors, read-out: S1P1 EC50 (noted in IC50 column)): 170 nM; IC50 (human S1P3 receptor; [1]): 0.319 µM; S1P3 percent inhibition (in parenthesis) (human S1P3 receptor; [2]): 98%
